Experimental findings from US12527833B2, “Pharmaceutical composition made from hydrophobic phytochemicals dispersed in sesame oil to enhance bioactivity” (ARJUNA NATURAL PVT. LTD., priority 2017, dated 2026) are described below.

Assay [1] concerns Carrageenan induced paw edema. The experiment in a line: Carrageenan paw edema in rats: Boswellia dispersion at different SSA values (Example 9). The class given is in vivo. Here is the method: The animals were housed in polypropylene cages and maintained under standard animal house conditions (12:12 hour light/dark cycle at 24±2° C. and 45-65% relative humidity). The rats had free access to standard pellet diet and water. 15 rats were divided into 5 groups comprising of 3 rats in each group. The rats were deprived of food, but had free access to drinking water for 12 h prior to the experiment. The treatment was as follows: After 12 hour fasting, baseline paw volume was recorded for each rat using digital plethysmometer (Ugo Basile, […]). Carrageenan (0.1 ml of 1%) in saline (0.9% NaCl) was injected into the plantar surface of the right hind paw of the animals. The experimental groups were given the designated extract/standard orally, 30 minutes prior to the injection of the carrageenan. After injection of carrageenan, paw volume was recorded at 3 hr to 6 hr post carrageenan. The edema was expressed as an increase in the volume of paw from baseline value, and the percentage of inhibition for each rat was calculated. • Group 1: 50 mg/Kg BS-1 (SSA 200-500 m^2/kg). • Group 2: 50 mg/Kg, BS-2 (SSA 700-1000 m^2/kg) • Group 3: 50 mg/Kg BS-3 (SSA 1100-1200 m^2/kg) • Group 4: 50 mg/Kg BS-4 (SSA>1300 m^2/kg) • Group 5: 10 mg/Kg Diclofenac.
(In the carrageenan paw model, swelling and tenderness develop within hours.)

Assay [2] relates to Carrageenan Induced Paw Edema. In words: Anti-inflammatory activity in carrageenan induced paw edema in rats (Example 11). The format is in vivo, SD rats. As to conditions: 6 h after carrageenan; oral; dose per group 10-100 mg/Kg; 6 rats per group. The protocol: SD rats (M/F) weighing 180-220 gm. were selected for the study. The animals were acclimatized for a period of five days and they were fed with standard pellet diet and water ad libitum. After five days of acclimatization, the rats were deprived of food, but had free access to drinking water for 12 hours prior to the experiment. Right hind paw of each rat was marked at the tibio-tarsal junction and baseline paw volume was determined using a digital plethysmometer (UGO BASILE, ITALY). Rats were divided into different groups keeping 6 rats in each group. Test sample/standard NSAID/vehicle was fed orally at designated dose. After 30 minutes of test sample/standard/vehicle, 0.1 ml carrageenan (1% suspension in 0.9% NaCl) was injected to the animals in subplantar region of the right hind paw. The paw volume was again determined for all the animals at 6 h after carrageenan injection and percentage inhibition was calculated by using following formula: […]

Assay [3] has as its system Carrageenan induced paw oedema. The experiment in a line: Carrageenan paw oedema in rats: Boswellia extract, sesame oil and their combinations (Example 8). The class given is in vivo. Here is the method:
The animals were housed in polypropylene cages and maintained under standard animal house conditions (12:12 hour light/dark cycle at 24±2° C. and 45-65% relative humidity). The rats had free access to standard pellet diet and water. […] were divided into 9 groups comprising of 3 rats in each group. The rats were deprived of food, but had free access to drinking water for 12 h prior to the experiment. The treatment was as follows: • Group 1: Untreated control. • Group 2: 10 mg/Kg Diclofenac. • Group 3: 20 mg/Kg Hydrophobic Boswellia extract with 2% AKBA (made as per example 2). • Group 4: 20 mg/Kg Hydrophobic Boswellia extract with 10% AKBA (made as per example 1). • Group 5: 30 mg/Kg Sesame seed oil about 0.9% sesame lignans. • Group 6: 50 mg/Kg Simple blend of Boswellia extract with 2% AKBA with Sesame seed oil with 10% sesame lignans (made as per example 6; using AKBA2). • Group 7: 50 mg/Kg Homogenized dispersion of hydrophobic Boswellia extract with 2% AKBA with sesame oil with 10% sesame lignans. (Made as per example 4). • Group 8: 50 mg/Kg Simple hydrophobic Boswellia extract with 10% AKBA with sesame oil with 10% sesame lignans. (Made as per example 6, F1). • Group 9: 50 mg/Kg Homogenized dispersion hydrophobic Boswellia extract with 10% AKBA with sesame oil with 10% sesame lignans. (Made as per example 4). After 12 hour fasting, baseline paw volume was recorded for each rat using digital plethysmometer (Ugo Basile, […]). Carrageenan (0.1 ml of 1%) in saline (0.9% NaCl) was injected into the plantar surface of the right hind paw of the animals. The experimental groups were given the designated extract/standard orally, 30 minutes prior to the injection of the carrageenan. […] The oedema was expressed as an increase in the volume of paw from baseline value, and the percentage of inhibition for each rat was calculated.

For the compound `O=C(O)Cc1ccccc1Nc1c(Cl)cccc1Cl` [Diclofenac], the “Percentage inhibition (%) 3HR” value in assay [1] (3 hr post carrageenan, oral, BS samples 50 mg/kg, Diclofenac 10 mg/kg) turned out to be 68%. Besides, the “Percentage inhibition (%) 6HR” value in assay [1] (6 hr post carrageenan, oral, BS samples 50 mg/kg, Diclofenac 10 mg/kg) stood at 94%. The same compound came in with an Avrage percentage inhibition in assay [1] (average of 3HR and 6HR) of 81%. For the same compound, in assay [2], the “Percentage inhibition in 6 Hours” value came to 86%. In addition, the “percentage inhibition 1 h” value in assay [3] (1 h post carrageenan, oral, dose per group 10-50 mg/Kg) is reported as 64%. In addition, in assay [3] (3 h post carrageenan, oral, dose per group 10-50 mg/Kg), the “percentage inhibition 3 h” value is given as 84%. In assay [3] (5 h post carrageenan, oral, dose per group 10-50 mg/Kg), the “percentage inhibition 5 h” value was 93%. In addition, in assay [3] (6 h post carrageenan, oral, dose per group 10-50 mg/Kg), the “percentage inhibition 6 h” value is listed as 97%. In assay [3] (average of 1, 3, 5, 6 h), the Average percentage inhibition was 85%.
